In brackets after ≈: the same amount, converted by molar mass. Where two headings read alike, the source gives them in different places.
Assays:
P. acnes NCTC 737 = assay: Supplemented disc diffusion assay (lipid or salt); assay type: cell-based, Propionibacterium acnes; details: 200 μg compound per disc; for zone of inhibition at 200 µg/disc: Cutibacterium acnes, NCTC737
Description: A sterile paper disc was impregnated with a sample of the test compound in a suitable solvent and 30 minutes allowed for the solvents to evaporate (where possible). The disc was then placed on an agar plate onto which the test micro-organism had been inoculated. The plate was then incubated under the conditions described above, following which it was examined visually for signs of microbial growth. If the test compound had antimicrobial activity, a circular zone of no growth would be obtained around the disc. The diameter of this zone of “inhibition” was measured using a ProtoCOL™ automated zone sizer (Synbiosis, Cambridge, UK). In general, a greater diameter and/or area of the zone of inhibition indicates a greater antimicrobial activity in the relevant test compound, although other factors such as test compound mobility through the agar gel may also influence the result.
The DDA test may be carried out using an agar gel supplemented with lipid and/or salt to simulate some of the major components present in human skin and to assess whether these substances might affect the antimicrobial activity observed for the test compound. Performance under these conditions can provide a more reliable indication of activity on topical application. […]
The compounds copper (II) usnate (Just for Today Ltd), sodium usnate (Yick-Vic Chemicals) and usnic acid (Sigma-Aldrich) were tested against P. acnes NCTC 737, using MIC, MBC and DDA assays as described above. For copper usnate and usnic acid, supplemented DDA assays were also carried out. DMSO was used as the solvent for all three test compounds. For the DDAs, 200 μg of the relevant test compound was loaded onto each disc. The MIC and MBC assays were conducted in triplicate, as were the DDAs for copper usnate.

S. mutans ATCC 25175 [1] = assay: MIC assay; assay type: cell-based, Streptococcus mutans; details: Wilkins-Chalgren broth pH 7 (±0.2)
Description: This is a standard international method for quantitatively assessing the antimicrobial activity of a compound in a liquid medium. The method used a sterile 96-well microtitre plate, capable of holding about 200 μl of liquid per well. […] The culture medium was as described above.
The wells were inoculated with a liquid suspension of freshly grown micro-organism and incubated under the conditions described above. After incubation, the microtitre plate was examined visually (with the aid of a light box) for cloudiness in each well, which would indicate microbial growth. The MIC value was recorded as the lowest concentration of test compound required to inhibit microbial growth, ie the lowest concentration for which the liquid in the well remained clear.
The assays included both negative (culture medium with no micro-organisms) and positive (culture medium plus diluting solvent plus micro-organism) controls.

S. mutans ATCC 25175 [2] = assay: Disc diffusion assay (DDA); assay type: cell-based, Streptococcus mutans; details: 200 μg per disc, 48 hours at 37° C., 5% carbon dioxide, single plates
Description: (a) staphylococci. The Staphylococcus aureus strain used was ATCC 29213. S. aureus and other staphylococci are common causes of a wide range of skin, skin structure and wound infections; S. aureus is also known to exacerbate eczema. The ATCC 29213 strain is known to be susceptible to beta-lactam antibiotics such as methicillin. The Staphylococcus epidermidis strain used was NCTC 11047. Staph. epidermidis forms part of the resident flora of skin and is an opportunistic pathogen which can cause biofilms to grow for instance on plastic surgical implants such as catheters. Unless otherwise stated, the staphylococci were cultured and maintained on Mueller-Hinton Medium (agar and broth) at pH 7.2; cultures were incubated aerobically at 37° C. for 19-20 hours, at pH 7 (±0.2). (b) C. striatum NCTC 764. Corynebacterium striatum is closely related to organisms (aerobic diphtheroids of the genus Corynebacterium) that cause body odour. It was cultured and maintained on Mueller-Hinton medium (agar and broth). All cultures were incubated aerobically at 37° C. for 72 hours, at pH 7 (±0.2). (c) streptococci. The strains tested were S. mutans ATCC 25175 and S. pyogenes ATCC 12344. […] The diameter of this zone of “inhibition” was measured using a ProtoCOL™ automated zone sizer (Synbiosis, Cambridge, UK). […]

Compound | DDA zone diameter, +1% NaCl (P. acnes NCTC 737; medium +1% NaCl) [mm] | DDA zone diameter, +1% triolein (P. acnes NCTC 737; medium +1% triolein) [mm] | MIC (S. mutans ATCC 25175 [1]) [µg/mL] | DDA zone diameter (S. mutans ATCC 25175 [2]) [mm] | zone of inhibition at 200 µg/disc (P. acnes NCTC 737; medium +1% NaCl, read-out: DDA zone diameter, +1% NaCl) [mm] | zone of inhibition at 200 µg/disc (P. acnes NCTC 737; medium +1% triolein, read-out: DDA zone diameter, +1% triolein) [mm] | MIC (S. mutans ATCC 25175 [1]; Streptococcus mutans, ATCC25175, read-out: MIC) [µg/mL] | zone of inhibition at 200 µg/disc (S. mutans ATCC 25175 [2]; Streptococcus mutans, ATCC25175, read-out: DDA zone diameter) [mm]
CC(=O)c1c([O-])c(C)c([O-])c2c1OC1=CC(=O)C(C(C)=O)C(=O)C12C.[Cu+2] (centres unmarked) [Copper usnate, copper (II) usnate] | 42.9 ± 0.4 | 27.4 ± 1.5 | 1.95 | 32.4 | – | – | – | –
CC(=O)c1c(O)c(C)c(O)c2c1OC1=CC(=O)C(C(C)=O)C(=O)C12C (centres unmarked) [Usnic acid, 2,6-diacetyl-7,9-dihydroxy-8,9b-dimethyl-1,3(2H,9bh)-dibenzofurandione] | – | – | – | – | 29.8 | 10.9 | 3.9 (≈ 11.3 µM) | 31.2

Source: patent publication US20120270935A1, “FORMULATIONS” (priority 2009, published 2012)
